Results taken from US7811778B2, “Methods of screening for gastrointestinal cancer” (Vanderbilt University, priority 2006, dated 2010).
“Also recorded” adds a separate entry of the source.

Tested on: emerging SPEM cells at the bases of fundic glands
Test: Gene microarray analysis of laser-capture microdissected chief cells and emerging SPEM cells (Affymetrix Mouse 430 2.0)
Format: in vivo, gastrin-deficient mice
Procedure: See Nomura, S., Yamaguchi, H., Wang, T. C., Lee, J. R., and Goldenring, J. R. 2004. Alterations in gastric mucosal lineages induced by acute oxyntic atrophy in wild type and gastrin deficient mice. Amer. J. Physiol. 288:G362-G375. […] To examine this hypothesis more directly, chief cells were microdissected from the very bases of untreated gastrin knockout mice as well as SPEM cells at the base of fundic glands after 1 and 3 days of treatment with DMP-777. Total RNA was prepared from 10,000 cells isolated from 4 different mice in each group. For each of the 12 samples, linear amplification was performed and Affymetrix Mouse 2.0 gene microarrays were probed. […] Second, 30 genes were identified as being involved in G1-S interface transition, including 5 MCM proteins, BRCA1, RIS2, RAD51, TACC3 and ligase1. Immunocytochemistry was used to confirm the upregulation of MCM3 as well as TACC3 in SPEM cells located at the base of fundic glands in mice treated for 1 or 3 days with DMP-777. All of these changes are consistent with alterations moving towards a proliferative phenotype. […] See Nomura, S., Yamaguchi, H., Wang, T. C., Lee, J. R., and Goldenring, J. R. 2004. Alterations in gastric mucosal lineages induced by acute oxyntic atrophy in wild type and gastrin deficient mice. Amer. J. Physiol. 288:G362-G375. Thus the up-regulation of proteins involved in the G1/S interface is also consistent with transdifferentiation of chief cells into SPEM, since such changes would require a global transcriptome, alterations that would require unwinding of DNA and changes in gene activation including alteration in DNA methylation.
Gastrin-deficient mice were constructed by targeted disruption of the gastrin gene and were maintained on a C57BL/6 background (Nomura S, Yamaguchi H, Wang T C, Lee J R, Goldenring J R. Alterations in gastric mucosal lineages induced by acute oxyntic atrophy in wild type and gastrin deficient mice. Amer.J.Physiol. 2004; In Press). Mice were treated for 1 or 3 days with oral gavage administration of DMP-777 (a gift of DuPont Pharmaceuticals), formulated in 0.5% methylcellulose (administered orally as a gavage once daily at 350 mg/kg/day). Untreated mice were utilized as controls. Mice were sacrificed and their stomachs were excised and opened along the greater curvature and processed for frozen sections for laser capture microdissection. From the untreated Gastrin-deficient mice, chief cells were microdissected from the bases of gastric glands. The emerging SPEM cells were microdissected from the bases of fundic glands of DMP-777-treated Gastrin-deficient mice after 1 or 3 days of oral drug administration. Cell collections (10,000 cells) and extractions of total RNA were performed as previously described (Nomura S, Baxter S, Yamaguchi T, Leys C, Vartapetian A B, Fox J G, Lee J R, Wang T C, Goldenring J R. Relationship of spasmolytic polypeptide expressing metaplasia (SPEM) to pre-neoplasia in H. felis-infected mice. Gastroenterology 2004; 127:582-594).
Total RNA from microdissected cells were reverse transcribed and amplified through two rounds of linear amplification using a Nugen Ovation kit to amplify and label 10-20 ng of RNA. The resulting single-strand cDNA product was purified by binding to and elution from a Qiagen QIAQUICK® column. The cDNA product was then quantitated and 2.2 μg of the fragmented, labeled product was hybridized to Affymetrix Mouse 430 2.0 microarrays overnight, with staining and scanning performed the next day. Gene expression was analyzed among microdissected cells from 4 untreated gastrin-deficient mice 4 mice treated with DMP-777 for one day and 4 mice treated with DMP-777 for three days. The raw gene expression data (.cel files) were converted to expression values using the Affy function in R (see the Bioconductor website). […]

[1] = DMP-777-treated gastrin-deficient mice, microarray
[2] = gastrin knockout mice, 1 day of DMP-777, SPEM cells vs untreated chief cells, fold increases indicated as the exponential of 2
[3] = gastrin knockout mice, 3 days of DMP-777, SPEM cells vs untreated chief cells, fold increases indicated as the exponential of 2
[4] = gastrin-deficient mice, 350 mg/kg/day oral, 1 day, microdissected SPEM cells vs untreated chief cells

In the case of `CCC[C@@H](NC(=O)N1C(=O)C(CC)(CC)[C@@H]1Oc1ccc(C(=O)N2CCN(C)CC2)cc1)c1ccc2c(c1)OCO2` [DMP-777], the “pro-apoptotic genes in the cohort of up-regulated gene transcripts” value (1 and 3 days of DMP-777-treatment) was “there were not any pro-apoptotic genes detected; also recorded: No pro-apoptotic genes were detected”, the “number of up-regulated genes involved in G1-S interface transition” value (DMP-777 1 and 3 days, at least 2 fold change) was 30 and the “number of the top 50 probes for up-regulated transcripts that detect regulators of the G1/S transition” value [1] was 34. The “transcripts for lipase, a chief cell product” value [1] was “significant decrease”, the “BRRN1, Day 1 Fold increase, Relative to Control” value [2] was 2.2 Fold and the “CRIP1, Day 1 Fold increase, Relative to Control” value [2] was 3.2 Fold. For the same compound, the “EREG, Day 1 Fold increase, Relative to Control” value [2] was 1.8 Fold, the “EXOSC8, Day 1 Fold increase, Relative to Control” value [2] was 2.6 Fold and the “EXPI, Day 1 Fold increase, Relative to Control” value [2] was 2.4 Fold. For the same compound, the “FIGNL1, Day 1 Fold increase, Relative to Control” value [2] was 3.3 Fold, the “IL1RN, Day 1 Fold increase, Relative to Control” value [2] was 4.7 Fold and the “LGALS3, Day 1 Fold increase, Relative to Control” value [2] was 5.5 Fold. For the same compound, the “NELF, Day 1 Fold increase, Relative to Control” value [2] was 2.1 Fold, the “S100A4, Day 1 Fold increase, Relative to Control” value [2] was 2.8 Fold and the “TMEM40, Day 1 Fold increase, Relative to Control” value [2] was 1.4 Fold. For the same compound, the “TMEM109, Day 1 Fold increase, Relative to Control” value [2] was 2.5 Fold, the “TR1P13, Day 1 Fold increase, Relative to Control” value [2] was 3.5 Fold and the “BRRN1, Day 3 Fold Increase, Relative to Control” value [3] was 3.1 Fold. For the same compound, the “CRIP1, Day 3 Fold Increase, Relative to Control” value [3] was 5.4 Fold, the “EREG, Day 3 Fold Increase, Relative to Control” value [3] was 4.8 Fold and the “EXOSC8, Day 3 Fold Increase, Relative to Control” value [3] was 2.8 Fold. For the same compound, the “EXPI, Day 3 Fold Increase, Relative to Control” value [3] was 8.4 Fold, the “FIGNL1, Day 3 Fold Increase, Relative to Control” value [3] was 2.7 Fold and the “IL1RN, Day 3 Fold Increase, Relative to Control” value [3] was 4.2 Fold. The “LGALS3, Day 3 Fold Increase, Relative to Control” value [3] was 7.3 Fold, the “NELF, Day 3 Fold Increase, Relative to Control” value [3] was 3.7 Fold and the “S100A4, Day 3 Fold Increase, Relative to Control” value [3] was 2.5 Fold. The “TMEM40, Day 3 Fold Increase, Relative to Control” value [3] was 6.9 Fold, the “TMEM109, Day 3 Fold Increase, Relative to Control” value [3] was 3.6 Fold and the “TR1P13, Day 3 Fold Increase, Relative to Control” value [3] was 3.0 Fold. For the same compound, the “5ssca1 transcript, 1 DAY DMP-777 vs CONTROL” value [4] was 8.9, the “Atf3 transcript, 1 DAY DMP-777 vs CONTROL” value [4] was 311.4 and the “Cdc2a transcript, 1 DAY DMP-777 vs CONTROL” value [4] was 11.7. For the same compound, the “Cdca1 transcript, 1 DAY DMP-777 vs CONTROL” value [4] was 9.2, the “Cdca5 transcript, 1 DAY DMP-777 vs CONTROL” value [4] was 17.3 and the “CdcaS transcript, 1 DAY DMP-777 vs CONTROL” value [4] was 7.3. For the same compound, the “Cenph transcript, 1 DAY DMP-777 vs CONTROL” value [4] was 25.7, the “Clspn transcript, 1 DAY DMP-777 vs CONTROL” value [4] was 9.5 and the “Crip1 transcript, 1 DAY DMP-777 vs CONTROL” value [4] was 9.5. For the same compound, the “Dcc1 transcript, 1 DAY DMP-777 vs CONTROL” value [4] was 8.8, the “Ereg transcript, 1 DAY DMP-777 vs CONTROL” value [4] was 3.6 and the “ExoscB transcript, 1 DAY DMP-777 vs CONTROL” value [4] was 6.2. The “Fignl1 transcript, 1 DAY DMP-777 vs CONTROL” value [4] was 10.2, the “Gadd45b transcript, 1 DAY DMP-777 vs CONTROL” value [4] was 8.6 and the “Il1m transcript, 1 DAY DMP-777 vs CONTROL” value [4] was 25.4. The “Lgals3 transcript, 1 DAY DMP-777 vs CONTROL” value [4] was 46.8, the “Lig1 transcript, 1 DAY DMP-777 vs CONTROL” value [4] was 9.3 and the “Mcm6 transcript, 1 DAY DMP-777 vs CONTROL” value [4] was 25.1. For the same compound, the “Ncapg transcript, 1 DAY DMP-777 vs CONTROL” value [4] was 7.5, the “Pole transcript, 1 DAY DMP-777 vs CONTROL” value [4] was 7.5 and the “Rad51 transcript, 1 DAY DMP-777 vs CONTROL” value [4] was 13.5. For the same compound, the “Rad54b transcript, 1 DAY DMP-777 vs CONTROL” value [4] was 6.7, the “Rfc3 transcript, 1 DAY DMP-777 vs CONTROL” value [4] was 8.1 and the “Rfc4 transcript, 1 DAY DMP-777 vs CONTROL” value [4] was 8.5. For the same compound, the “Rrm1 transcript, 1 DAY DMP-777 vs CONTROL” value [4] was 8.4 and the “Tk1 transcript, 1 DAY DMP-777 vs CONTROL” value [4] was 10.1.
